pKi: −log10 of the molar value.
Target: ATP-dependent translocase ABCB1 (Homo sapiens, UniProt P08183)
Assay: TP_TRANSPORTER: inhibition of Taxol transepithelial transport (basal to apical) in Caco-2 cells
Assay type: functional, cell-based

ATP-dependent translocase ABCB1, sequence (P08183 whole entry): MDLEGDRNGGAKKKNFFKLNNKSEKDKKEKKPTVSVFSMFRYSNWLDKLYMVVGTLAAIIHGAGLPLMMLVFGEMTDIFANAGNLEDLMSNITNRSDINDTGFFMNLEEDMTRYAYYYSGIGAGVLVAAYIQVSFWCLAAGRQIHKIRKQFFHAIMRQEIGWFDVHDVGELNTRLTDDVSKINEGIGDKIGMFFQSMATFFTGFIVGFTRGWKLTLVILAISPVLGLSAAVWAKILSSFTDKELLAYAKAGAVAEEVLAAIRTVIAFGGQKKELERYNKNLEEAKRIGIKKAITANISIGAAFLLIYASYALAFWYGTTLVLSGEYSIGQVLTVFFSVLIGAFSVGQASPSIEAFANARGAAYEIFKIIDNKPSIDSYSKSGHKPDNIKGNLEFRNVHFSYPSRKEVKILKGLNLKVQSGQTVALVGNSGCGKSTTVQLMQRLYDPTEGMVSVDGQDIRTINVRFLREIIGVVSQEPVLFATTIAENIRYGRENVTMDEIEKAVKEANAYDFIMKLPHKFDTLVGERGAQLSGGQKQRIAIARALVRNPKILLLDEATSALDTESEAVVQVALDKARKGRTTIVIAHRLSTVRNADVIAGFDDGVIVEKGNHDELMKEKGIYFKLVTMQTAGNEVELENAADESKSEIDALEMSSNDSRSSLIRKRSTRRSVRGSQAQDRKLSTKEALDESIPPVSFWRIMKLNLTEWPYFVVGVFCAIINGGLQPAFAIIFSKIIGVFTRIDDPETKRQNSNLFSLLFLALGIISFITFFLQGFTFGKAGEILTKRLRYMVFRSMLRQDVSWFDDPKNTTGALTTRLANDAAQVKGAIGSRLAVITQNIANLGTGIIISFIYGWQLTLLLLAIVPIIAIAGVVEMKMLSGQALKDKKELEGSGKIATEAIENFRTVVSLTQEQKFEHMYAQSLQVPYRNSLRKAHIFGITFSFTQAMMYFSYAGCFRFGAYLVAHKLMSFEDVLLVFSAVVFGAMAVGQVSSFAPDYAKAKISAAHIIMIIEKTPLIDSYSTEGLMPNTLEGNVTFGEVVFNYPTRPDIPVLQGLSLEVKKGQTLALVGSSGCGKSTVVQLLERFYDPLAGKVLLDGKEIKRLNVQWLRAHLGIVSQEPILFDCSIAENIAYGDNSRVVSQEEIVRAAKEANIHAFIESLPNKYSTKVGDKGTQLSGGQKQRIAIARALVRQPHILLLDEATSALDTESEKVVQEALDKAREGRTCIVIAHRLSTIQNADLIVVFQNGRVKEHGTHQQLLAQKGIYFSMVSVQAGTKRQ

O=C(C(c1ccccc1)c1ccccc1)N1CCN(C[C@@H](O)COc2cccc3ncccc23)CC1
pKi: 6.40

— ChEMBL document CHEMBL2073808, “P-glycoprotein inhibition by the multidrug resistance-reversing agent MS-209 enhances bioavailability and antitumor efficacy of orally administered paclitaxel” (Cancer Chemother Pharmacol, 2002)
